Experimental findings from patent US20070202079A1, “Therapeutic compositions and methods useful in modulating protein tyrosine phosphatases” (priority 2006, published 2007) are described below.

In one assay the test system is MDA231. Kind of assay: MDA231 cell growth, MTT. The settings on record: 50 μg/ml, day 6 culture. Format: cell-based, human. As for the experimental part: (§1) For cell proliferation assays, cells were grown in 10% FCS culture medium containing various amounts of IFNs and/or sodium stibogluconate in 96 well plates and cultured at 37° C. for 3 or 6 days as indicated. The numbers of viable cells in proliferation assays were determined by MTT assays as described in Phatak et al., J. Immunol. 167, 3391 (2001).

The next assay concerns the target T1, Flag-PRL-2 (Homo sapiens, UniProt Q12974).
T1 construct: expressed in transfected cells; host or cells: NIH3T3 (pBabepuro, puromycin-selected)
Briefly: immunocomplex PTPase assay, NIH3T3 Flag-PRL-2 transfectants. Format: cell-based, mouse. The protocol:
(§2) Immunocomplex PTPase assays were performed to assess the effects of sodium stibogluconate on intracellular PTPases. Cells were untreated or treated with sodium stibogluconate for 5 minutes, washed with fresh medium and then lysed in cold lysis buffer (50 mM Tris, pH 7.4; 150 mM NaCl; 1% NP40; 2 mM PMSF; 20 μg/ml of Aprotinin). The lysates were incubated with an anti-Flag antibody in immunoprecipitation assays. The immunocomplexes were collected with protein G sepharose beads (Pharmacia) and washed in cold lysis buffer for 4 times. […] C. for 18 hrs. 100 μL of malachite green solution (UBI) was added to each reaction prior to measurement of OD660 to quantify the amounts of free phosphate cleaved by the PTPases from the peptide substrate (Pathak et al., J. Immunol. 167, 3391 (2001)). The remaining 10% contents of individual samples were analyzed by SDS-PAGE/Western blotting to quantify the relative amounts of the phosphatase proteins. […]
(§3) The effects of sodium stibogluconate on intracellular PTPases were assessed using NIH3T3 or WM9 transfectants. […]

A further assay relates to WM35. Kind of assay: WM35 cell growth, MTT. The class given is cell-based, human. The protocol:
as §1

The test system of assay [1] is tumor-infiltrating and spleen immune cells (F4/80+, CD4+, CD8+). Kind of assay: immunohistochemistry of Renca tumors and spleen. Format: in vivo, Balb/c mice. The settings on record: mouse, in vivo. The protocol:
Major internal organs and Renca tumors harvested from mice were fixed in 10% formalin or snap frozen in liquid nitrogen. H & E-stained tissue sections of the fixed samples were prepared and evaluated by microscopy as described previously (Yi, T., M. K. Pathak, D. J. Lindner, M. E. Ketterer, C. Farver, and E. C. Borden. 2002. Anticancer activity of sodium stibogluconate in synergy with IFNs. J Immunol 169:5978). Preparation of frozen tissue sections and immunohistochemistry were performed following established procedures (Joliat, M. J., P. A. Lang, B. L. Lyons, L. Burzenski, M. A. Lynes, T. Yi, J. P. Sundberg, and L. D. Shultz. 2002. Absence of CD5 dramatically reduces progression of pulmonary inflammatory lesions in SHP-1 protein-tyrosine phosphatase-deficient ‘viable motheaten’ mice. J Autoimmun 18:105). The antibodies used for immunohistochemistry were anti-CD4 (rat mAb, clone GK1.5, BD Biosciences, Franklin Lakes, N.J.), anti-CD8 (rat mAb, clone 53-6.7.5, BD Biosciences, Franklin Lakes, N.J.), anti-F4/80 (rat mAb, clone A3-1, Serotec, Oxford, UK) and anti-Asialo GM1 (rabbit polyclonal, Cedarlane, Hornby, Canada). […] Tissue sections of 2 mice/group were evaluated. The number of immune cells was semi-quantified based on the following scheme: […], 0-1 positive cells/40×field; +, 2-5 positive cells/40×field; ++, 6-10 positive cells/40×field, etc.

A further assay addresses T2, Flag-PRL-1 (Homo sapiens, UniProt Q93096).
T2 construct: expressed in transfected cells; host or cells: WM9 human melanoma cell line (pBabepuro, puromycin-selected)
Kind of assay: immunocomplex PTPase assay, NIH3T3 Flag-PRL-1 transfectants. Format: cell-based, mouse. The settings on record: cells treated 5 min. As for the experimental part: as §2, §3

Assay [2] deals with IFNγ+ cells in human peripheral blood. Kind of assay: ELISPOT assays of peripheral blood treated in vitro. Format: cell-based. The settings on record: comparable conditions.
The test system of another assay is WiT49-N1. Kind of assay: WiT49-N1 cell growth, MTT. Format: cell-based, human. The settings on record: day 6. As for the experimental part:
as §1

The test system of the next assay is NB4 cells. Kind of assay: NB4 growth, cell cycle and Annexin V. The class given is cell-based, human. The protocol: The NB4 cell line (Lanotte et al., Blood 77, 1080 (1991)) was a gift from Dr. Dan Lindner of the Cleveland Clinic Foundation. […] and U937 cell lines were purchased from American Type Culture Collection (Rockville, Md.). These human […] cell lines were maintained in RPMI 1640 medium supplemented with 10% fetal calf serum (FCS). For cell proliferation assays, cells were cultured at 37° C. in 10% FCS medium containing various amounts of sodium stibogluconate for 6 days. The cell numbers in the cultures were determined by an MTT assay as described previously in Mosmann, J. Immunol. Methods 65, 55 (1983).
The cell cycle was analyzed by flow cytometry after 3 days of culture of NB4 cells in the absence or presence of sodium stibogluconate (250 μg/ml) or ATRA (1 μM). Briefly, the cells were fixed in cold ethanol and incubated for 30 minutes at 4° C. in the dark with a solution of […] propidium iodide, 1 mg/ml RNase and 0.1% NP-40. Analysis was performed immediately after staining using the CELLFIT program (Becton Dickinson, Mountain View, Calif.).
Annexin V staining of exposed membrane phospholipid phosphatidylserine (PS) was done using the Annexin V assay kit (Pharmingen, San Diego, Calif.). Briefly, NB4 cells were cultured in the 10% FCS RPMI 1640 medium in the absence or presence of sodium stibogluconate (250 μg/ml) or ATRA (1 μM) for 3 days. Cells were then washed in PBS twice and stained in binding buffer (10 mM Hepes, pH 7.4; 140 mM NaCl; 2.5 mM CaCl2) containing Annexin V-FITC and propidium iodide for 15 min. The reaction was stopped by adding 10 volumes of binding buffer and analyzed by FACS (Becton Dickinson Facsvantage).

T1 sequence (Q12974 whole entry): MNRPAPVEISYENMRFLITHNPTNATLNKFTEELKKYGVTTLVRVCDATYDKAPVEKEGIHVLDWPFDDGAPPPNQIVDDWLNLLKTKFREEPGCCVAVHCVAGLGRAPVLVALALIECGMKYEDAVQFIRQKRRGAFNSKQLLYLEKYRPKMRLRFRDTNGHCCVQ
T2 sequence (Q93096 whole entry): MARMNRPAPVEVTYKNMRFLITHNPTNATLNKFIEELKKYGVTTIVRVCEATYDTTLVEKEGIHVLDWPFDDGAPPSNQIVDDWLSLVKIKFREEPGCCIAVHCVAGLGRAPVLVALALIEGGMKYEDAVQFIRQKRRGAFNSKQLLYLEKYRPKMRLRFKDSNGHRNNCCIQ

With `O.O.O.O.O.O.O.O.O.O=C([O-])[C@@H]1[O][Sb]2([O-])([O][Sb]34([OH])[O][C@H]([C@H](O)CO)[C@H]([O]3)[C@H](C(=O)[O-])[O]4)[O][C@H]([C@H](O)CO)[C@@H]1[O]2.[Na+].[Na+].[Na+]` [sodium stibogluconate], the “MDA231 cells, single agent” value in the assay with MDA231 is listed as “killed all cells”. Further, the “time required for full removal of effect on intracellular PRL-2” value at Flag-PRL-2 (brief treatment) is “at least 24 hours”. Also, the “PTPase activity of immunocomplexes from treated Flag-PRL-2 transfectants” value at Flag-PRL-2 (cells treated 5 min) is “lack of PTPase activity”. Further, the “sensitivity of WM35 cells” value in the assay with WM35 was “minimally affected”. The “numbers of tumor-infiltrating T cells or NK cells” value in assay [1] is on record as “little effect”. The “PTPase activity of immunocomplexes from treated Flag-PRL-1 transfectants” value on Flag-PRL-1 is on record as “little PTPase activities”. In assay [2], the “cells expressing TH2 cytokine IL-5” value is “not induced”. Moreover, the “WiT49-N1 growth inhibition activity with IFN-alpha” value with WiT49-N1 is recorded as “not enhanced by IFN-alpha”. Also, the “Annexin V staining of NB4 cells” value with NB4 cells (250 μg/ml, 6 days) is “stained positive by Annexin V”. Moreover, the “proliferation of NB4 cells” value in the assay with NB4 cells (12.5-400 μg/ml) is “markedly inhibited”. For the same compound, in the assay on NB4 cells (sodium stibogluconate 250 μg/ml or ATRA 1 μM, 3 days), the “cell cycle of NB4 cells” value is “significant increase of cells at S phase”.
